In patent publication US8293771B2, “p38 MAP kinase inhibitors” (Respivert Ltd., priority 2008, dated 2012):
pIC50: −log10 of the molar value.

Tests used:
[1] = tested on: LPS-induced neutrophil accumulation; assay: LPS-induced neutrophilia in the mouse; assay type: in vivo
[2] = tested on: ovalbumin-mediated lung function changes (sGaw); assay: Ovalbumin challenge/parainfluenza infection model (in vivo model for steroid resistance); set-up: species or system Dunkin-Hartley guinea-pigs
Protocol: Male Dunkin-Hartley guinea-pigs (300-350 g, n=6/group) were sensitised with 100 μg ovalubumin (OVA)+100 mg Al2(OH)3 in 1 ml normal saline (i.p.) on days 2 and 6. Parainfluenza virus (PIV-3; 10^6 infectious units) or media without virus was nasally instilled on days 11 and 12. Animals were treated with nebulised fluticasone propionate at a dose of 1.5 mg per day. […] All animals were challenged for 1 h with nebulised OVA (10 μg/ml) on day 15 and repeated measurements of specific airways conductance (sGaw) were made over a 24 h period using whole body plethysmography. Measurements of sGaw after OVA challenge are plotted as % change from baseline.

[3] = tested on: neutrophil and macrophage accumulation into airways of mice exposed to cigarette smoke; assay: Cigarette smoke model; assay type: in vivo, A/J mice; conditions: intra-nasal, twice daily for 3 days
Protocol: A/J mice (males, 5 weeks old) were exposed to cigarette smoke (4% cigarette smoke, diluted with compressed air) for 30 min/day for 11 days using a Tobacco Smoke Inhalation Experiment System for small animals (Model SIS-CS; Sibata Scientific Technology, Tokyo, Japan). Test substances were given intra-nasally (35 μl of solution in 50% DMSO/PBS) and therapeutically twice daily for 3 days after the final cigarette smoke exposure. Twelve hours after the last dosing, animals were anesthetized, the trachea cannulated and bronchoalveolar lavage fluid (BALF) was collected. The numbers of alveolar macrophages and neutrophils were determined by FACS analysis (EPICS® ALTRA II, Beckman Coulter, Inc., Fullerton, Calif., USA) using anti-mouse MOMA2 antibody (macrophage) or anti-mouse 7/4 antibody (neutrophil).
The results are shown in FIG. 3 for activated alveolar macrophages and in FIG. 4 for neutrophils. Data for cell numbers are shown as the mean±SEM.

[4] = tested on: Differentiated U937 cells; assay: LPS-induced TNFα release in differentiated U937 cells; assay type: cell-based; conditions: Homo sapiens, U-937; 0.1 ug/ml LPS, 4 hrs; compound pre-incubated 2 hrs
Protocol: U937 cells, human monocytic cell line, were differentiated to macrophage-type cells by incubation with phorbol myristate acetate (PMA; 100 ng/ml) for 48 to 72 hours. Where appropriate, cells were pre-incubated with final concentrations of compound for 2 hrs. Cells were then stimulated with 0.1 ug/ml of LPS (from E. Coli: O111:B4, Sigma) for 4 hrs, and the supernatant collected for determination of TNFα concentration by sandwich ELISA (Duo-set, R&D systems). THP-1, human monocytic cell line, was also used for this assay. THP-1 cells were stimulated with 1 ug/ml of LPS (from E. Coli: O111:B4, Sigma) for 4 hrs, and the supernatant collected for determination of TNFα concentration.

[5] = tested on: Differentiated U937 cells; assay: MTT assay in differentiated U937 cells; assay type: cell-based, human; conditions: 4, 24 h (10 ug/ml)
Protocol: Differentiated U937 cells were pre-incubated with compound for 4 hrs in 5% FCS or 10% FCS for 24 hrs and 72 hrs. The supernatant was replaced with 200 ul of new media and 10 ul of MTT stock solution (5 mg/ml) added to each well. After 1 hr incubation, the media were removed, 200 ul of DMSO added to each well and the plates were shaken lightly for 1 hour prior to reading the absorbance at 550 nm.
The percentage loss of cell viability was calculated for each well relative to vehicle (0.5% DMSO)-treatment. Consequently an apparent increase in cell viability for drug treatment relative to vehicle is tabulated as a negative percentage.

Row | SMILES | inhibition at 50 µg/mL ([1]; Mus musculus, Neutrophil, 50 μg/ml (35 μl, bid)) | Ovalbumin-mediated lung function changes ([2]; sensitized animals treated with PIV3 medium (no virus), nebulised 1.5 mg per day) | Inhibition of LPS-induced neutrophil accumulation ([1]; mouse, intra tracheal pre-dosing, BALF 8 hours after LPS) | Duration of effect on LPS-induced neutrophil accumulation ([1]; mouse, pre-dose time before LPS) | Efficacy in cigarette smoke model of steroid-resistant inflammation [3] | pIC50 [4] | Differentiated U937 cells MTT assay [5] | Efficacy in ovalbumin challenge/parainfluenza model of steroid-resistant inflammation ([2]; guinea pigs, PIV3 inoculated, 4.5 mg per day nebulised)
1 | CCC(=O)O[C@]1(C(=O)SCF)[C@H](C)C[C@H]2[C@@H]3C[C@H](F)C4=CC(=O)C=C[C@]4(C)[C@@]3(F)[C@@H](O)C[C@@]21C [fluticasone propionate, reference compound] | > 80% | inhibited ovalbumin-mediated lung function changes |  |  |  |  |  | 
2 | COCC(=O)Nc1cc(COc2ccc(NC(=O)Nc3cc(C(C)(C)C)nn3-c3ccc(C)cc3)c3ccccc23)ccn1 [Example 1, N-[4-({4-[3-(3-tert-Butyl-1-p-tolyl-1H-pyrazol-5-yl)ureido]naphthalen-1-yloxy}methyl)pyridin-2-yl]-2-methoxyacetamide] |  |  | effective in inhibiting LPS-induced neutrophil accumulation | significant inhibition even at 12 or more hours of pre-dosing | effective | 9.06 | Negative^2 | effective
